Source: paper PMC12518634, “The noncanonical function of liver-type phosphofructokinase potentiates the efficacy of HDAC inhibitors in cancer” (Signal Transduction and Targeted Therapy, 2025)
Where a name gives a salt, the structure may show the parent alone. Read-outs that look alike come from different tables or passages of the source.

Legend:
Format in all cases: cell-based, human
[1] = test system: 1405R3; assay: High-throughput drug screen, CellTiter-Glo viability, 72 h; design: AUC: scale not given here; settings: 1405R3 DSRT analysis; for AUC: area under the dose-response curve; for MIN: lower asymptote of fitted dose-response curve; for SLOPE: slope of fitted dose-response curve; for EC50: fitted dose-response curve, Min.Conc.tested 1, Max.Conc.tested 10000, 72 h, read-out: EC50
Method in brief: (§1)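 Cholangiocarcinoma cells were seeded at 3000/well in 384-well plates and dosed after 24 h. Drugs were tested at 10, 1, 0.1, 0.01 and 0.001 μM in duplicate for 72 h, with viability read by CellTiter-Glo luminescence.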

[2] = test system: 783C-6; assay: as above; design: AUC: scale not given here; settings: for AUC: area under the dose-response curve; for EC50: 72 h, read-out: EC50
Method in brief: as §1

[3] = test system: TFK1 cells; assay: Cell viability assay (CellTiter-Glo, 72 h), GI50; settings: TFK1 sgPFKL-1 and sgPFKL-2 versus sgNC, Supplementary Fig. 2d
Experimental: Cell viability was assessed using the CellTiter-Glo luminescent cell viability assay (Vazyme, DD1101) following the manufacturer’s instructions. Briefly, 5000 cells per well were seeded into a 96-well white bottom permeable plate. Different concentrations of drugs were added to each well. After 72 h of treatment, a mixture of CellTier reagent and serum-free culture medium was prepared at a 1:1 ratio, and 100 μL of the mixture was added to each well. After incubation at 37 °C for 15 min, the luminescence was measured using a microplate reader (Synergy H1, Biotek). All the experiments were conducted in triplicate. Cell viability (relative luminescence) was defined as the luminescence of the drug treatment relative to that of the vehicle control.

[4] = 783C-6 cells, DSS of DSRT analysis
[5] = 783C-6 cells, minimum of dose-response curve
[6] = 783C-6 DSRT analysis, DSS calculated from the dose-response curve
[7] = 783C-6 DSRT analysis, MIN of the fitted dose-response curve
[8] = 783C-6 cells, slope of fitted dose-response curve
[9] = 783C-6 DSRT analysis, CellTiter-Glo viability, fitted dose-response curve, Min.Conc.tested 1, Max.Conc.tested 10000
[10] = 783C-6 DSRT analysis, slope of the fitted dose-response curve
[11] = Homo sapiens, CellTiter-Glo viability, GI50

| Molecule | AUC [1] | DSS ([1]; drug sensitivity score) | MIN [1] | DSS [2, 4] | AUC ([2]; 783C-6 cells) | MIN [2, 5] | DSS ([1]; DSS) | DSS [2, 6] | MIN [2, 7] | AUC ([2]; 783C-6 DSRT analysis) | SLOPE [1] | further results |
| --- | --- | --- | --- | --- | --- | --- | --- | --- | --- | --- | --- | --- |
| O=C(CCCCCCC(=O)Nc1ccccc1)NO [vorinostat, reference compound] | 87 | 10 | 6.1 | 11.5 | 104.1 | 3.6 |  |  |  |  |  | effect of PFKL knockout on drug efficacy (cell viability) [3]: significantly inhibited drug efficacy |
| CCC(=O)CCCCC[C@@H]1NC(=O)[C@H]2CCCCN2C(=O)[C@H]([C@@H](C)CC)NC(=O)[C@H](Cc2cn(OC)c3ccccc23)NC1=O [apicidin] |  |  |  |  |  |  |  |  |  |  |  | effect of PFKL knockout on drug efficacy (cell viability) [3]: significantly inhibited drug efficacy |
| Nc1ncn([C@H]2C[C@H](O)[C@@H](CO)O2)c(=O)n1 [Decitabine] | 0.1 |  | 100 |  |  |  | 0 | 0.5 | 88.5 | 19.6 |  |  |
| CN1CCc2c(c3ccccc3n2Cc2ccc(C(=O)NO)cc2)C1.Cl [Tubastatin A HCl] | 3.3 | 0 | 94.8 | 0 | 2.4 | 92.1 |  |  |  |  | -0.5 | SLOPE [2, 8]: -1 |
| CC[C@@H]1C(=O)N(C)c2cnc(Nc3ccc(C(=O)NC4CCN(C)CC4)cc3OC)nc2N1C1CCCC1 [BI 2536] | 98.4 |  | 6.7 |  |  |  | 11.6 | 8.8 | 52.4 | 90 |  | EC50 ([1]; Homo sapiens, CellTiter-Glo): 884 nM; EC50 ([2]; Homo sapiens): 136 nM |
| CN1CCc2c(c3ccccc3n2Cc2ccc(C(=O)NO)cc2)C1.O=C(O)C(F)(F)F [Tubastatin A TFA] | 17.4 | 0 | 88.8 | 0 | 24.4 | 86.5 |  |  |  |  | -0.1 | SLOPE [2, 8]: -0.1 |
| C#Cc1cccc(Nc2ncnc3cc(OCCOC)c(OCCOC)cc23)c1 [Erlotinib HCl] | 27.3 |  | 82.4 |  |  |  | 0 | 0 | 77 | 6.9 |  |  |
| Cc1csc(-c2nnc(Nc3ccc(Oc4ncccc4-c4ccnc(N)n4)cc3)c3ccccc23)c1 [AMG-900] | 29 |  | 82.3 |  |  |  | 0.2 | 4.1 | 63.4 | 52.5 |  | EC50 ([2]; Homo sapiens): 483 nM |
| N.N.[Cl][Pt][Cl] [Cisplatin] | 22.7 |  | 71.3 |  |  |  | 2 | 2 | 65.1 | 20.4 | -1.8 | EC50 ([1]; CellTiter-Glo): 1650 nM; EC50 [2, 9]: 2630 nM; SLOPE [2, 10]: -2.5 |
| Cn1c(/C=C/C(=O)NO)ccc1/C=C/C(=O)c1cccc(F)c1 [MC1568] | 2.6 |  | 94.6 |  |  |  | 0 | 0 | 98.4 | 0.2 | -0.6 | SLOPE [2, 10]: -2.5 |
| CNCCN(C)Cc1cn[nH]c1-c1ccc(OC2CC(OCCC3CCOCC3)C2)cc1.Cl (centres unmarked) [EPZ020411 2HCl] | 0.3 |  | 97.2 |  |  |  | 0 | 0 | 96.5 | 1.7 | -2.5 | SLOPE [2, 10]: -0.6 |
| Cn1cc(CNCC2CCN(c3ncc(C(=O)NO)cn3)CC2)c2ccccc21 [Quisinostat] | 180.7 | 21.1 | 0.1 | 26.9 | 227.2 | 1.2 |  |  |  |  |  | EC50 [1, 11]: 156 nM; EC50 ([2]; Homo sapiens): 50 nM |
| CCCC(CCC)C(=O)O [Valproic acid sodium salt] | 8.4 | 0 | 92.2 | 0 | 4.4 | 85.4 |  |  |  |  |  |  |
| COc1cccc2c1c(O)c(C(=O)N(C)c1ccc(C(F)(F)F)cc1)c(=O)n2C [Tasquinimod] | 0.1 | 0 | 100 | 0 | 1.7 | 96 |  |  |  |  |  |  |
| Cc1cn(CCN2CCN(c3ccccc3-c3cc(C#N)cc(C(=O)NCCCN4CCCC4)c3)CC2)c2ccccc12 [LLY-507] | 49.7 |  | 1.8 |  |  |  | 5.5 | 3.9 | 23.1 | 36.6 |  | EC50 ([1]; Homo sapiens, CellTiter-Glo): 3190 nM; EC50 ([2]; Homo sapiens): 3430 nM |
| C=CC(=O)Nc1cc2c(Nc3ccc(F)c(Cl)c3)ncnc2cc1OCCCN1CCOCC1 [Canertinib] | 33.5 |  | 78.5 |  |  |  | 0 | 0 | 75.6 | 7.4 |  |  |
| Nc1cc(F)ccc1NC(=O)/C=C/c1cnn(C/C=C/c2ccccc2)c1 [RGFP966] | 0.2 | 0 | 98.3 | 0 | 7 | 93.9 |  |  |  |  |  |  |
| COc1cc2nc(N3CCCN(C)CC3)nc(NC3CCN(Cc4ccccc4)CC3)c2cc1OC [BIX 01294] | 42.6 |  | 12.3 |  |  |  | 4.6 | 4.7 | 28 | 42.4 |  | EC50 ([1]; Homo sapiens, CellTiter-Glo): 3350 nM; EC50 ([2]; Homo sapiens): 2610 nM |
| Nc1ccccc1NC(=O)c1ccc(CNC(=O)OCc2cccnc2)cc1 [Entinostat] | 87.7 |  | 5.2 |  |  |  | 10 | 9.1 | 8.3 | 78 |  | EC50 ([1]; Homo sapiens, CellTiter-Glo): 1200 nM; EC50 ([2]; Homo sapiens): 1420 nM |
| CN(C)NC(=O)CCC(=O)O [Daminozide] | 0.1 |  | 99.6 |  |  |  | 0 | 0 | 97.8 | 1 |  |  |
| COc1ccc(Cn2ccc3ccc(C(=O)NO)cc32)cc1 [PCI-34051] | 0.1 | 0 | 100 | 0 | 2 | 95.4 |  |  |  |  | -0.1 | SLOPE [2, 8]: -0.7 |
| O=C(NO)c1cccc(C(=O)NCCc2ccccc2)c1 [BRD73954] | 13.2 |  | 91.5 |  |  |  | 0 | 0 | 90.9 | 14 | -0.1 | SLOPE [2, 10]: -0.1 |
| C[C@@H]1O[C@@H](O[C@H]2[C@H](O[C@H]3[C@H](O[C@H]4CC[C@]5(C)[C@H]6CC=C7[C@@H]8CC(C)(C)CC[C@]8(C(=O)O)CC[C@@]7(C)[C@]6(C)CC[C@H]5C4(C)C)OC[C@H](O)[C@@H]3O)O[C@H](CO)[C@@H](O)[C@@H]2O)[C@H](O)[C@H](O)[C@H]1O [Raddeanin A] | 56.1 | 6.3 | 1.8 | 5.9 | 52.9 | 3.4 |  |  |  |  | -2.5 | EC50 ([1]; CellTiter-Glo viability, GI50): 2720 nM; EC50 ([2]; 783C-6 cells, DSRT analysis, CellTiter-Glo viability, concentrations tested 1 to 10000 (unit inferred), GI50): 2880 nM; SLOPE [2, 8]: -2.5 |
| O=C(/C=C/c1ccc(CN(CCO)CCc2c[nH]c3ccccc23)cc1)NO [Dacinostat] | 132.5 |  | 1.4 |  |  |  | 15.8 | 11.6 | 2.5 | 99 |  | EC50 ([1]; Homo sapiens, CellTiter-Glo): 453 nM; EC50 ([2]; Homo sapiens): 965 nM |
| O=C(NCC1(c2nc(-c3ccccc3)cs2)CCOCC1)c1cccc(-c2noc(C(F)(F)F)n2)c1 [TMP269] | 24.8 | 0 | 87 | 2.5 | 50.1 | 84.2 |  |  |  |  | -0.2 | SLOPE [2, 8]: -0.3 |
| COc1cc2c(NC3CCN(C(C)C)CC3)nc(C3CCCCC3)nc2cc1OCCCN1CCCC1 [UNC0638] | 19.7 | 1.9 | 59.1 | 2 | 21.3 | 73.8 |  |  |  |  |  | EC50 [1, 11]: 3370 nM; EC50 ([2]; Homo sapiens): 1540 nM |
| C[C@@H]1NC(=O)[C@H]2CCCN2C(=O)[C@H](CCCCCC(=O)[C@@H]2CO2)NC(=O)[C@@H](C)NC1=O [HC-Toxin] |  |  |  |  |  |  |  |  |  |  |  | effect of PFKL knockout on drug efficacy (cell viability) [3]: significantly inhibited drug efficacy |
| AR-42 | 98.5 |  | 1.2 |  |  |  | 11 | 10.5 | 2.3 | 96.3 | -1.5 | EC50 ([1]; CellTiter-Glo): 1030 nM; EC50 [2, 9]: 1080 nM; SLOPE [2, 10]: -1.3 |
